Experimental data as given in patent US8148391B2 (Cephalon, Inc., priority 2006, dated 2012).
pIC50: −log10 of the molar value. Read-outs that look alike come from different tables or passages of the source.

How the values were obtained:
[1] = target: T1, baculovirus-expressed ALK (Homo sapiens, UniProt Q9UM73); assay: ALK Kinase Assay (ELISA-type, time-resolved fluorescence); format: biochemical
T1 construct: host or cells: baculovirus expression system
How it was run: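 Plates coated with phospholipase C-γ substrate (10 μg/mL in TBS); reaction started with 30 ng/ml ALK and run 15 min at 37° C. Phosphorylated substrate detected with Eu-N1-labeled PT66 antibody. IC50 from sigmoidal variable-slope fit of percent inhibition vs log concentration.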

[2] = target: T2, c-Met (cytoplasmic domain) (Homo sapiens, UniProt P08581); assay: c-Met Kinase Assay (same methods as for ALK, with modifications); format: biochemical
T2 construct: 10 ng/mL c-Met (cytoplasmic domain, Invitrogen Corporation #PV3143); purchased Invitrogen Corporation PV3143
How it was run: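 Plates were coated with phospholipase C-γ substrate (10 μg/mL) in TBS, and the reaction was started with 10 ng/mL c-Met cytoplasmic domain and run 15 min at 37 °C. Phosphoproduct was detected with Eu-N1-labelled PT66 antibody. IC50 came from a variable-slope sigmoidal fit of percent inhibition vs log concentration.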

[3] = 1 μM ATP (Km level), read-out: ALK Activity (ALK Kinase Inhibition, IC50)
[4] = 1 μM ATP (Km level), read-out: cMet Activity (c-Met Kinase Inhibition, IC50)
[5] = 1 μM ATP (Km level), 30 ng/ml ALK, 37° C., 15 minutes, read-out: ALK Activity (ALK kinase inhibition, IC50 class)
[6] = 1 μM ATP (Km level), 10 ng/mL c-Met, read-out: cMet Activity (c-Met kinase inhibition, IC50 class)
[7] = ALK kinase inhibition, 1 μM ATP, read-out: ALK Activity
[8] = c-Met kinase inhibition, 1 μM ATP, read-out: cMet Activity
[9] = ALK kinase inhibition, 1 μM ATP (Km level), read-out: ALK Activity
[10] = c-Met kinase inhibition, 1 μM ATP (Km level), read-out: cMet Activity

T2 sequence (P08581 956-1390 limits assumed): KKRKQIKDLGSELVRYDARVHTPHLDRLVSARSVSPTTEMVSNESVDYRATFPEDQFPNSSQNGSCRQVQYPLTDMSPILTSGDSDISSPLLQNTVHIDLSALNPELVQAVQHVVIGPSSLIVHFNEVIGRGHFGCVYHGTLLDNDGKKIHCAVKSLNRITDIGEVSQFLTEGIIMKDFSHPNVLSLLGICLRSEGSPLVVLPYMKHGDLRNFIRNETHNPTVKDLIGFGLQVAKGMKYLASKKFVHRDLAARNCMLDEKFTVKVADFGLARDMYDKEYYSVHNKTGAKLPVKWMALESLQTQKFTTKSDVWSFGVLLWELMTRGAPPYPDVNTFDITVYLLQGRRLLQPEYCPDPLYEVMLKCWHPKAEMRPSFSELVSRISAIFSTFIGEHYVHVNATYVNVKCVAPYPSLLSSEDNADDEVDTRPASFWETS
T1 sequence (Q9UM73 19-1620): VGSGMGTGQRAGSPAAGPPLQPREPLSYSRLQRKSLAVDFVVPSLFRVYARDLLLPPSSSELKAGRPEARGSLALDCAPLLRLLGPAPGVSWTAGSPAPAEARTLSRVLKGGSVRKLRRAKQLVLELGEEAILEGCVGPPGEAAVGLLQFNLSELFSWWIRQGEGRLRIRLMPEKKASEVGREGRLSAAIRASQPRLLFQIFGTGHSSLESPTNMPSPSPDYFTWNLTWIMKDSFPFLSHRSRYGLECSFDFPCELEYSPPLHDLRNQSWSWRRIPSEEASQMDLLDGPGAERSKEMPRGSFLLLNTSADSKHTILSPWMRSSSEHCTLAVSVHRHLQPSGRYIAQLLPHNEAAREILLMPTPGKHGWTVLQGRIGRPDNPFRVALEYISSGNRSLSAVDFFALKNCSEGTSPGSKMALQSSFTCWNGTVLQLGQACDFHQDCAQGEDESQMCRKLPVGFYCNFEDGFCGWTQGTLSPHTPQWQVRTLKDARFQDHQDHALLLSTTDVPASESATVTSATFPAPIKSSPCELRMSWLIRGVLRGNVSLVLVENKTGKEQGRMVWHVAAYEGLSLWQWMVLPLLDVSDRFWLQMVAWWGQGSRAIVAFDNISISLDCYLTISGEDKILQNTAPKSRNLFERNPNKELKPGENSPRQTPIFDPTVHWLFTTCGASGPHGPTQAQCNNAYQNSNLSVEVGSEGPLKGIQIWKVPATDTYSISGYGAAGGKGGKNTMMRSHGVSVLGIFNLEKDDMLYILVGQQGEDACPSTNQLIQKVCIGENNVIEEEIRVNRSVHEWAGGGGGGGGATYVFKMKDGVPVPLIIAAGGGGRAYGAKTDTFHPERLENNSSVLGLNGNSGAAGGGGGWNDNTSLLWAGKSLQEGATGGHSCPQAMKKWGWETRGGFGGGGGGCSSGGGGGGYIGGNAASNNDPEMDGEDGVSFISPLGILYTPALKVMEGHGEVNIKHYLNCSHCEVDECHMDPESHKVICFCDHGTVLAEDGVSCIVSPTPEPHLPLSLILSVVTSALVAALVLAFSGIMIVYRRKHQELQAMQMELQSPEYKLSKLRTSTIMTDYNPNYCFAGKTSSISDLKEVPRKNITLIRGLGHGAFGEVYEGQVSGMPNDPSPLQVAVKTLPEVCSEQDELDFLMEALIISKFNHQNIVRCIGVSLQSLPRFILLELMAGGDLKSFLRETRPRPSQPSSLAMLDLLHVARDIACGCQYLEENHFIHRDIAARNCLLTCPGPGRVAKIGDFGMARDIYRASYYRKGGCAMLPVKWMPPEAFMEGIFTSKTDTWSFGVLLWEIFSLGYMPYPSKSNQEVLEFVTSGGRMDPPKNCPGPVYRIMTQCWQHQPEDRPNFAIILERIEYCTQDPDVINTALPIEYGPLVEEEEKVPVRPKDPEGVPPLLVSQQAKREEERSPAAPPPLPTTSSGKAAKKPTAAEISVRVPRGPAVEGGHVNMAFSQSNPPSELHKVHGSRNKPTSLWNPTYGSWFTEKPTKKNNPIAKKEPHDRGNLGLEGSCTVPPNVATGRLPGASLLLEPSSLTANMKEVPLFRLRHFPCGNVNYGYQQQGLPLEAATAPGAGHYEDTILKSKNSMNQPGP

| Compound | pIC50 [1, 5] | pIC50 [2, 6] | pIC50 [1, 7] | pIC50 [2, 8] | further results |
| --- | --- | --- | --- | --- | --- |
| O=C1CCCc2cc(Nc3ncc(Cl)c(Nc4ccccc4-c4nc(C(F)(F)F)c[nH]4)n3)ccc2N1 [Example 1012, 7-{5-Chloro-4-[2-(4-trifluoromethyl-1H-imidazol-2-yl)-phenylamino]-pyrimidin-2-ylamino}-1,3,4,5-tetrahydro-benzo[b]azepin-2-one] |  |  |  |  | pIC50 [1, 3]: 6.00 to 7.00; pIC50 [2, 4]: 6.00 to 7.00 |
| 2-[5-Chloro-2-(3-methyl-4-oxo-2,3,4,5-tetrahydro-1H-benzo[d]azepin-7-ylamino)-pyrimidin-4-ylamino]-3,5,N-trimethyl-benzamide [Example 1818] |  |  | 5.00 to 6.00 | 6.00 to 7.00 |  |
| COCCN1CCc2ccc(Nc3ncc(Cl)c(N[C@@H]4CCCC[C@H]4N)n3)cc2CC1 [Example 451, N*4*-((1R,2R)-2-Amino-cyclohexyl)-5-chloro-N*2*-[3-(2-methoxy-ethyl)-2,3,4,5-tetrahydro-1H-benzo[d]azepin-7-yl]-pyrimidine-2,4-diamine] |  |  |  |  | pIC50 [1, 9]: 6.00 to 7.00; pIC50 [2, 10]: 5.00 to 6.00 |
| COc1cc2c(cc1Nc1ncc(Cl)c(Nc3ccccc3S(=O)(=O)C(C)C)n1)CCN(CCN1CCOCC1)CC2 [Example 1534, 5-Chloro-N(2)-[8-methoxy-3-(2-morpholin-4-yl-ethyl)-2,3,4,5-tetrahydro-1H-3-benzazepin-7-yl]-N(4)-[2-(propane-2-sulfonyl)-phenyl]-pyrimidine-2,4-diamine] |  |  | > 7.00 | < 5.00 |  |
| CCN1CC(=O)N(CC)c2cc(Nc3ncc(Cl)c(N[C@@H]4CCCC[C@H]4NS(C)(=O)=O)n3)c(OC)cc2C1 [Example 736, N,N-{(1R,2R)-2-[5-Chloro-2-(1,4-diethyl-7-methoxy-2-oxo-2,3,4,5-tetrahydro-1H-benzo[e][1,4]diazepin-8-ylamino)-pyrimidin-4-ylamino]-cyclohexyl}-methanesulfonamide] |  |  |  |  | pIC50 [1, 3]: 6.00 to 7.00; pIC50 [2, 4]: < 5.00 |
| CNC(=O)c1cccc(F)c1Nc1nc(Nc2ccc3c(c2)-n2cccc2C=CO3)ncc1Cl [Example 1269, 2-[5-Chloro-2-(6-oxa-10b-aza-benz[e]azulen-9-ylamino)-pyrimidin-4-ylamino]-3-fluoro-N-methyl-benzamide] | 6.00 to 7.00 | > 7.00 |  |  |  |
| COc1c(Nc2ncc(Cl)c(Nc3ccccc3S(=O)(=O)N3CC[C@H](O)C3)n2)ccc2c1CCCC(NCCO)C2 (stereo partly drawn) [Example 963, (S)-1-(2-{5-Chloro-2-[6-(2-hydroxy-ethylamino)-1-methoxy-6,7,8,9-tetrahydro-5H-benzocyclohepten-2-ylamino]-pyrimidin-4-ylamino}-benzenesulfonyl)-pyrrolidin-3-ol] |  |  |  |  | pIC50 [1, 3]: > 7.00; pIC50 [2, 4]: 5.00 to 6.00 |
| CCNC(=O)c1ccccc1Nc1nc(Nc2ccc3c(c2)CCC(N2CCOCC2)CC3)ncc1Cl (stereo not drawn) [Example 866, 2-[5-Chloro-2-(7-morpholin-4-yl-6,7,8,9-tetrahydro-5H-benzocyclohepten-2-ylamino)-pyrimidin-4-ylamino]-N-ethyl-benzamide] |  |  |  |  | pIC50 [1, 3]: > 7.00; pIC50 [2, 4]: > 7.00 |
| CNC(=O)c1cc(N(C)C)ccc1Nc1nc(Nc2ccc3c(c2)CCN(CCOC)CC3)ncc1Cl [Example 1413, 2-{5-Chloro-2-[3-(2-methoxy-ethyl)-2,3,4,5-tetrahydro-1H-benzo[d]azepin-7-ylamino]-pyrimidin-4-ylamino}-5-dimethylamino-N-methyl-benzamide] | > 7.00 | 6.00 to 7.00 |  |  |  |
| CS(=O)(=O)Nc1ccccc1Nc1nc(Nc2ccc3c(c2)CNC(=O)NC3)ncc1Cl [Example 225, N-{2-[5-Chloro-2-(3-oxo-2,3,4,5-tetrahydro-1H-benzo[e][1,3]diazepin-7-ylamino)-pyrimidin-4-ylamino]-phenyl}-methanesulfonamide] |  |  |  |  | pIC50 [1, 9]: > 7.00; pIC50 [2, 10]: 5.00 to 6.00 |
| COc1cc2c(cc1Nc1ncc(Cl)c(N[C@H]3[C@@H](C(N)=O)[C@@H]4C=C[C@H]3C4)n1)CCN(CC(F)F)CC2 [Example 806, (1S,2S,3R,4R)-3-{5-Chloro-2-[3-(2,2-difluoro-ethyl)-8-methoxy-2,3,4,5-tetrahydro-1H-benzo[d]azepin-7-ylamino]-pyrimidin-4-ylamino}-bicyclo[2.2.1]hept-5-ene-2-carboxylic acid amide] |  |  |  |  | pIC50 [1, 3]: > 7.00; pIC50 [2, 4]: < 5.00 |
| COCCN1CCc2ccc(Nc3ncc(Cl)c(Nc4ccccc4OCC(N)=O)n3)cc2CC1 [Example 1241, 2-(2-{5-Chloro-2-[3-(2-methoxy-ethyl)-2,3,4,5-tetrahydro-1H-3-benzazepin-7-ylamino]-pyrimidin-4-ylamino}-phenoxy)-acetamide] | 6.00 to 7.00 | 6.00 to 7.00 |  |  |  |

Continued, in another order:

| pIC50 [1, 5] | pIC50 [2, 6] | pIC50 [1, 7] | pIC50 [2, 8] | Compound | further results |
| --- | --- | --- | --- | --- | --- |
| > 7.00 | < 5.00 |  |  | COc1cc2c(cc1Nc1ncc(Cl)c(N[C@@H]3CCCC[C@H]3NS(C)(=O)=O)n1)CCC(NCCO)CC2 (single isomer, unassigned) [Example 1094] |  |
|  |  | > 7.00 | < 5.00 | COc1cc2c(cc1Nc1ncc(Cl)c(N[C@H]3[C@@H](C(N)=O)[C@@H]4C=C[C@H]3C4)n1)CCN(CCN1CCOCC1)CC2 [Example 1529, (1S,2S,3R,4R)-3-{5-Chloro-2-[8-methoxy-3-(2-morpholin-4-yl-ethyl)-2,3,4,5-tetrahydro-1H-3-benzazepin-7-ylamino]-pyrimidin-4-ylamino}-bicyclo[2.2.1]hept-5-ene-2-carboxylic acid amide] |  |
| > 7.00 | < 5.00 |  |  | CNC(=O)c1cc(N(C)C)ccc1Nc1nc(Nc2cc3c(cc2OC)CCN(CC(=O)N(C)C)CC3)ncc1Cl [Example 1185, 2-[5-Chloro-2-(3-dimethylcarbamoylmethyl-8-methoxy-2,3,4,5-tetrahydro-1H-benzo[d]azepin-7-ylamino)-pyrimidin-4-ylamino]-5-dimethylamino-N-methyl-benzamide] |  |
|  |  | 6.00 to 7.00 | 6.00 to 7.00 | C#CCNC(=O)c1cccc(F)c1Nc1nc(Nc2ccc3c(c2)N(CC)CC(O)(CO)CO3)ncc1Cl (stereo not drawn) [Example 1721, 2-[5-Chloro-2-(9-ethyl-7-hydroxy-7-hydroxymethyl-6,7,8,9-tetrahydro-5-oxa-9-aza-benzocyclohepten-2-ylamino)-pyrimidin-4-ylamino]-3-fluoro-N-prop-2-ynyl-benzamide] |  |
|  |  | > 7.00 | 5.00 to 6.00 | CCN1CCCOc2cc(Nc3ncc(Cl)c(Nc4ccc(N5CCOCC5)cc4OC)n3)ccc21 [Example 1694, 5-Chloro-N*2*-(9-ethyl-6,7,8,9-tetrahydro-5-oxa-9-aza-benzocyclohepten-3-yl)-N*4*-(2-methoxy-4-morpholin-4-yl-phenyl)-pyrimidine-2,4-diamine] |  |
| > 7.00 | < 5.00 |  |  | COCCN1CCc2cc(Nc3ncc(Cl)c(N[C@H]4[C@@H](C(N)=O)[C@@H]5C=C[C@H]4C5)n3)c(OC)cc2CC1 [Example 1315, (1S,2S,3R,4R)-3-{5-Chloro-2-[8-methoxy-3-(2-methoxy-ethyl)-2,3,4,5-tetrahydro-1H-benzo[d]azepin-7-ylamino]-pyrimidin-4-ylamino}-bicyclo[2.2.1]hept-5-ene-2-carboxylic acid amide] |  |
| > 7.00 | > 7.00 |  |  | CC(C)S(=O)(=O)c1ccccc1Nc1nc(Nc2ccc3c(c2)C(C)(C)CCC(=O)N3C)ncc1Cl [Example 1329, 7-{5-Chloro-4-[2-(propane-2-sulfonyl)-phenylamino]-pyrimidin-2-ylamino}-1,5,5-trimethyl-1,3,4,5-tetrahydro-benzo[b]azepin-2-one] |  |
|  |  | 6.00 to 7.00 | 6.00 to 7.00 | CNC(=O)c1sccc1Nc1nc(Nc2ccc3c(c2)OCCCN3C(=O)CN2CCCC2)ncc1Cl [Example 1715, 3-{5-Chloro-2-[9-(2-pyrrolidin-1-yl-acetyl)-6,7,8,9-tetrahydro-5-oxa-9-aza-benzocyclohepten-3-ylamino]-pyrimidin-4-ylamino}-thiophene-2-carboxylic acid methylamide] |  |
|  |  | 5.00 to 6.00 | 6.00 to 7.00 | CCOC(=O)N1CC(=O)Nc2cc(Nc3ncc(Cl)c(Nc4c(F)cccc4C(=O)NC)n3)ccc2C1 [Example 1869, 8-[5-Chloro-4-(2-fluoro-6-methylcarbamoyl-phenylamino)-pyrimidin-2-ylamino]-2-oxo-1,2,3,5-tetrahydro-benzo[e][1,4]diazepine-4-carboxylic acid ethyl ester] |  |
|  |  | 6.00 to 7.00 | 6.00 to 7.00 | CNC(=O)c1scc(C)c1Nc1nc(Nc2ccc3c(c2)NC(=O)CN(C(C)=O)C3)ncc1Cl [Example 1850, 3-[2-(4-Acetyl-2-oxo-2,3,4,5-tetrahydro-1H-benzo[e][1,4]diazepin-8-ylamino)-5-chloro-pyrimidin-4-ylamino]-4-methyl-thiophene-2-carboxylic acid methylamide] |  |
|  |  | 6.00 to 7.00 | 6.00 to 7.00 | C#CCNC(=O)c1cccc(F)c1Nc1nc(Nc2ccc3c(c2)NCCCC3(C)C)ncc1Cl [Example 1612, 2-[5-Chloro-2-(5,5-dimethyl-2,3,4,5-tetrahydro-1H-benzo[b]azepin-8-ylamino)-pyrimidin-4-ylamino]-3-fluoro-N-prop-2-ynyl-benzamide] |  |
| > 7.00 | 6.00 to 7.00 |  |  | Clc1cnc(Nc2ccc3c(c2)CCC(N2CCOCC2)CC3)nc1Nc1ccccc1-n1cccn1 (stereo not drawn) [Example 1034, 5-Chloro-N*2*-(7-morpholin-4-yl-6,7,8,9-tetrahydro-5H-benzocyclohepten-2-yl)-N*4*-(2-pyrazol-1-yl-phenyl)-pyrimidine-2,4-diamine] |  |
